Laboratory results from patent US20250170140A1, “PHARMACEUTICAL COMPOSITION FOR PREVENTING OR TREATING CANCER COMPRISING CARNITINE ACYLCARNITINE CARRIER INHIBITOR AND PEROXISOMAL BETA OXIDATION INHIBITOR” (priority 2021, published 2025).

Tests used:
Assay type in all cases: cell-based
MCF-7 cells = assay: SRB assay, breast cancer cell line MCF-7
Protocol: To determine the effect of the combination treatment of omeprazole (KN510), a carnitine acylcarnitine carrier inhibitor, and thioridazine (KN714), a peroxisome beta-oxidation inhibitor, on cancer cell growth, the extent of cancer cell death was determined using the SRB assay (Sulforhodamine B colorimetric assay), and the degree of cancer cell growth was analyzed relative to the control (100%). As a comparison, omeprazole (KN510) and trimetazidine (KN713), a 3-ketoacyl CoA thiolase inhibitor, were co-treated.
First, a pancreatic cancer cell line, MIA PaCa-2, was prepared, and cells (100 μl) were inoculated into 96-well cell culture plates at plating densities ranging from 5,000 to 20,000 cells/well, depending on the doubling time of each cell line. After cell inoculation, 96-well cell culture plates were incubated for 24 hours before the addition of experimental drugs. MIA PaCa2 cells were treated with omeprazole (KN510) at concentrations of 10^−8 M, 10^−7 M, 10^−6 M, 10^−5 M, 10^−4 M, and 10^−3 M, thioridazine (KN714) at concentrations of 10^−10 M, 10^−9 M, 10^−8M, 10^−7 M, 10^−6 M, and 10^−5 M, and trimetazidine (KN713) at concentrations of 10^−7 M, 10^−6 M, 10^−5 M, 10^−4 M, 10^−3 M, and 10^−2 M, respectively.
(§1) The cells were then incubated in a CO2 incubator for 48 hours, after which the assay was terminated by the addition of cold TCA. Cells were fixed in situ by gently adding 50 μl of cold 50% (w/v) TCA (final concentration: 10% TCA) and incubated at 4° C. for 60 min. The supernatant was discarded, and the plate was washed five times with distilled water and air dried. Sulforhodamine B (SRB) solution (100 μl) of 0.4% (w/v) in 1% acetic acid was added to each well, and the plate was left at room temperature for 10 min. After staining, unbound dye was removed by washing five times with 1% acetic acid, and the plate was air-dried. The bound dye was then solubilized with 10 mM trizma base, and the absorbance was recorded at 515 nm using an automated plate reader.
Based on Table 1 above and GI50 values, omeprazole (KN510) and/or thioridazine (KN714) concentrations were added to each well such that the concentrations were as shown in the following groups, and then cancer cell death was measured in the same manner as in Examples 1-1 above. • 1) Control, • 2) Thioridazine (KN714) 5 μM alone treatment group, • 3) Thioridazine (KN714) 10 μM alone treatment group, • 4) Omeprazole (KN510) 200 μM alone treatment group, • 5) Omeprazole (KN510) 200 μM+thioridazine (KN714) 5 μM combination treatment group, • 6) Omeprazole (KN510) 200 μM+thioridazine (KN714) 10 μM combination treatment group.
When the anticancer activity of two compounds in combination is greater than the simple sum of the anticancer activity of the individual compounds (expected activity), this is called synergistic. The predicted synergistic activity of a combination of the present invention can be calculated using the Colby Equation in Equation 1 (S.R. Colby, Weeds, 1967, pp. 15, 20-22): […]
In the present invention, the actual measure of anti-cancer activity of the combination treatment was the inhibition rate of cancer cell growth (%), and the predicted value (E) of the combination treatment was measured by substituting it into the above Colby Equation. If the actual value is greater than the predicted value, it can be judged that there is a synergistic effect, and in this invention, the predicted value calculated by the Colby Equation and the actual value were compared to further verify the synergistic effect of the combination.
Experiments were performed using the breast cancer cell lines MCF-7 cells (1.2×10^4 cells/well) and MDA-MB-231 cells (8.0×10^3 cells/well) in the same manner as in Examples 1-2 and 1-3 above.

DU-145 cells = assay: SRB assay, prostate cancer cells DU-145
Protocol: as §1, with “As a comparison, omeprazole (KN510) and trimetazidine (KN713), a 3-ketoacyl CoA thiolase inhibitor, were co-treated. […] After cell inoculation, 96-well cell culture plates were incubated for 24 hours before the addition of experimental drugs. […] The cells” for “The cells”, “plate reader. […] The predicted synergistic activity of a combination of the present invention can be calculated using the Colby Equation in Equation 1 (S.R. Colby, Weeds, 1967, pp. 15, 20-22): In the present invention, the actual measure of anti-cancer activity of the combination treatment was the inhibition rate of cancer cell growth (%), and the predicted value (E) of the combination treatment was measured by substituting it into the above Colby Equation.” for “plate reader.”

ACHN cells = assay: SRB assay, renal cell carcinoma cell line ACHN
Protocol: as §1, with “As a comparison, omeprazole (KN510) and trimetazidine (KN713), a 3-ketoacyl CoA thiolase inhibitor, were co-treated. […] After cell inoculation, 96-well cell culture plates were incubated for 24 hours before the addition of experimental drugs. […] The cells” for “The cells”, “plate reader. […] The predicted synergistic activity of a combination of the present invention can be calculated using the Colby Equation in Equation 1 (S.R. Colby, Weeds, 1967, pp. 15, 20-22): In the present invention, the actual measure of anti-cancer activity of the combination treatment was the inhibition rate of cancer cell growth (%), and the predicted value (E) of the combination treatment was measured by substituting it into the above Colby Equation.” for “plate reader.”

SR cells = assay: SRB assay, leukemia cell line SR
Protocol: as §1, with “As a comparison, omeprazole (KN510) and trimetazidine (KN713), a 3-ketoacyl CoA thiolase inhibitor, were co-treated. […] After cell inoculation, 96-well cell culture plates were incubated for 24 hours before the addition of experimental drugs. […] The cells” for “The cells”, “plate reader. […] The predicted synergistic activity of a combination of the present invention can be calculated using the Colby Equation in Equation 1 (S.R. Colby, Weeds, 1967, pp. 15, 20-22): In the present invention, the actual measure of anti-cancer activity of the combination treatment was the inhibition rate of cancer cell growth (%), and the predicted value (E) of the combination treatment was measured by substituting it into the above Colby Equation.” for “plate reader.”

UACC-62 cells = assay: SRB assay, melanoma cell line UACC-62
Protocol: as §1, with “As a comparison, omeprazole (KN510) and trimetazidine (KN713), a 3-ketoacyl CoA thiolase inhibitor, were co-treated. […] After cell inoculation, 96-well cell culture plates were incubated for 24 hours before the addition of experimental drugs. […] The cells” for “The cells”, “plate reader. […] The predicted synergistic activity of a combination of the present invention can be calculated using the Colby Equation in Equation 1 (S.R. Colby, Weeds, 1967, pp. 15, 20-22): In the present invention, the actual measure of anti-cancer activity of the combination treatment was the inhibition rate of cancer cell growth (%), and the predicted value (E) of the combination treatment was measured by substituting it into the above Colby Equation.” for “plate reader.”

SK-HEP-1 cells = assay: SRB assay, liver cancer cell line SK-HEP-1
Protocol: as §1, with “As a comparison, omeprazole (KN510) and trimetazidine (KN713), a 3-ketoacyl CoA thiolase inhibitor, were co-treated. […] After cell inoculation, 96-well cell culture plates were incubated for 24 hours before the addition of experimental drugs. […] The cells” for “The cells”, “plate reader. […] The predicted synergistic activity of a combination of the present invention can be calculated using the Colby Equation in Equation 1 (S.R. Colby, Weeds, 1967, pp. 15, 20-22): In the present invention, the actual measure of anti-cancer activity of the combination treatment was the inhibition rate of cancer cell growth (%), and the predicted value (E) of the combination treatment was measured by substituting it into the above Colby Equation.” for “plate reader.”

DLD-1 cells = assay: SRB assay, colon cancer cell line DLD-1
Protocol: as §1, with “As a comparison, omeprazole (KN510) and trimetazidine (KN713), a 3-ketoacyl CoA thiolase inhibitor, were co-treated. […] After cell inoculation, 96-well cell culture plates were incubated for 24 hours before the addition of experimental drugs. […] The cells” for “The cells”, “plate reader. […] The predicted synergistic activity of a combination of the present invention can be calculated using the Colby Equation in Equation 1 (S.R. Colby, Weeds, 1967, pp. 15, 20-22): In the present invention, the actual measure of anti-cancer activity of the combination treatment was the inhibition rate of cancer cell growth (%), and the predicted value (E) of the combination treatment was measured by substituting it into the above Colby Equation.” for “plate reader.”

OVCAR-8 cells = assay: SRB assay, ovarian cancer cells OVCAR-8
Protocol: as §1, with “As a comparison, omeprazole (KN510) and trimetazidine (KN713), a 3-ketoacyl CoA thiolase inhibitor, were co-treated. […] After cell inoculation, 96-well cell culture plates were incubated for 24 hours before the addition of experimental drugs. […] The cells” for “The cells”, “plate reader. […] The predicted synergistic activity of a combination of the present invention can be calculated using the Colby Equation in Equation 1 (S.R. Colby, Weeds, 1967, pp. 15, 20-22): In the present invention, the actual measure of anti-cancer activity of the combination treatment was the inhibition rate of cancer cell growth (%), and the predicted value (E) of the combination treatment was measured by substituting it into the above Colby Equation.” for “plate reader.”

[1] = Homo sapiens, KN510 100 μM, read-out: Inhibition rate of cancer cell growth (%) (Actual value)
[2] = Homo sapiens, KN510 200 μM, read-out: Inhibition rate of cancer cell growth (%) (Actual value)

COc1ccc2[nH]c([S+]([O-])Cc3ncc(C)c(OC)c3C)nc2c1 (centres unmarked) [KN510, omeprazole]
inhibition at 100 µM (MCF-7 cells; Homo sapiens, MCF7, KN510 100 μM, read-out: Inhibition rate of cancer cell growth (%) (Actual value)): 34.7% | inhibition at 200 µM (MCF-7 cells; Homo sapiens, MCF7, KN510 200 μM, read-out: Inhibition rate of cancer cell growth (%) (Actual value)): 50% | Cancer cell growth rate Average (%) (MCF-7 cells; KN510 100 μM): 65.30% | Cancer cell growth rate Average (%) (MCF-7 cells; KN510 200 μM): 49.96% | inhibition at 100 µM (DU-145 cells; [1]): 50.4% | inhibition at 200 µM (DU-145 cells; [2]): 62.9% | Cancer cell growth rate Average (%) (DU-145 cells; KN510 100 μM): 49.59% | Cancer cell growth rate Average (%) (DU-145 cells; KN510 200 μM): 37.08% | inhibition at 100 µM (ACHN cells; [1]): 38.9% | inhibition at 200 µM (ACHN cells; [2]): 80.1% | Cancer cell growth rate Average (%) (ACHN cells; KN510 100 μM): 61.12% | Cancer cell growth rate Average (%) (ACHN cells; KN510 200 μM): 19.93% | inhibition at 100 µM (SR cells; [1]): 35.1% | inhibition at 200 µM (SR cells; [2]): 70.1% | Cancer cell growth rate Average (%) (SR cells; KN510 100 μM): 64.90% | Cancer cell growth rate Average (%) (SR cells; KN510 200 μM): 29.89% | inhibition at 100 µM (UACC-62 cells; [1]): 53.4% | inhibition at 200 µM (UACC-62 cells; [2]): 96.4% | Cancer cell growth rate Average (%) (UACC-62 cells; KN510 100 μM): 46.56% | Cancer cell growth rate Average (%) (UACC-62 cells; KN510 200 μM): 3.59% | inhibition at 100 µM (SK-HEP-1 cells; Homo sapiens, SK-HEP1, KN510 100 μM, read-out: Inhibition rate of cancer cell growth (%) (Actual value)): 46.7% | inhibition at 200 µM (SK-HEP-1 cells; Homo sapiens, SK-HEP1, KN510 200 μM, read-out: Inhibition rate of cancer cell growth (%) (Actual value)): 62.8% | Cancer cell growth rate Average (%) (SK-HEP-1 cells; KN510 100 μM): 53.28% | Cancer cell growth rate Average (%) (SK-HEP-1 cells; KN510 200 μM): 37.19% | inhibition at 100 µM (DLD-1 cells; [1]): 26.1% | inhibition at 200 µM (DLD-1 cells; [2]): 63.2% | Cancer cell growth rate Average (%) (DLD-1 cells; KN510 100 μM): 73.90% | Cancer cell growth rate Average (%) (DLD-1 cells; KN510 200 μM): 36.78% | inhibition at 100 µM (OVCAR-8 cells; [1]): 44.5% | inhibition at 200 µM (OVCAR-8 cells; [2]): 63.3% | Cancer cell growth rate Average (%) (OVCAR-8 cells; KN510 100 μM): 55.49% | Cancer cell growth rate Average (%) (OVCAR-8 cells; KN510 200 μM): 36.66%
